Structures can show the parent of a compound that is named as a salt. Where two headings read alike, the source gives them in different places.
Molecular target: SARS-CoV-2 3CLpro (Severe acute respiratory syndrome coronavirus 2, UniProt P0DTD1)
Assay: biochemical
Format: biochemical
Design: Replicate_1 / Replicate_2 / mean / mean (LOPAC_screen_w_protease): unit not given here
Conditions: for inhibition at 5 µM: 4 h
[1] = sheet LOPAC_screen_w_protease, LOPAC1280 primary screen with protease, 5 µM compound, mean of the two replicates, read-out: mean
[2] = sheet LOPAC_screen_w_protease, LOPAC1280 primary screen with protease, 5 µM compound, replicate 1, read-out: Replicate_1
[3] = sheet LOPAC_screen_w_protease, LOPAC1280 primary screen with protease, 5 µM compound, replicate 2, read-out: Replicate_2
[4] = LOPAC1280 primary screen with protease, 5 µM compound, mean of the two replicates
[5] = LOPAC1280 primary screen with protease, 5 µM compound, replicate 1
[6] = LOPAC1280 primary screen with protease, 5 µM compound, replicate 2
[7] = sheet LOPAC_screen_w_protease, primary screen with protease, 5 µM, mean of two replicates
[8] = sheet LOPAC_screen_w_protease, primary screen with protease, 5 µM, replicate 1
[9] = sheet LOPAC_screen_w_protease, primary screen with protease, 5 µM, replicate 2
[10] = sheet LOPAC_screen_w_protease, primary screen of LOPAC1280 at 5 µM with protease, mean of the two replicates, read-out: mean
[11] = sheet LOPAC_screen_w_protease, primary screen of LOPAC1280 at 5 µM with protease, replicate 1, read-out: Replicate_1
[12] = sheet LOPAC_screen_w_protease, primary screen of LOPAC1280 at 5 µM with protease, replicate 2, read-out: Replicate_2

Compound `O=C(O)/C=C\C(=O)O.O=C(O)/C=C\C(=O)O.c1ccc2nc(N3CCNCC3)ccc2c1` [Quipazine dimaleate] has a mean (sheet LOPAC_screen_w_protease, LOPAC1280 primary screen at 5 µM, with protease, mean of the two replicates) of 0.5004, a Replicate_1 (sheet LOPAC_screen_w_protease, LOPAC1280 primary screen at 5 µM, with protease, replicate 1) of 0.6596 and a Replicate_2 (sheet LOPAC_screen_w_protease, LOPAC1280 primary screen at 5 µM, with protease, replicate 2) of 0.3411.

`CSc1nc(N)c2ncn([C@@H]3O[C@H](COP(=O)([O-])OP(=O)([O-])OP(=O)([O-])[O-])[C@@H](O)[C@H]3O)c2n1.[Na+].[Na+].[Na+].[Na+]` gave a mean (sheet LOPAC_screen_w_protease, primary screen with protease, mean of two replicates) of 2.299, a Replicate_1 (sheet LOPAC_screen_w_protease, primary screen with protease, replicate 1) of 2.88 and a Replicate_2 (sheet LOPAC_screen_w_protease, primary screen with protease, replicate 2) of 1.718.

With `CCOC(=O)C1=C(C)NC(C)=C(C(=O)OC)C1c1cccc([N+](=O)[O-])c1` (stereo not drawn) [Nitrendipine] the inhibition at 5 µM [1] was 4.54%, the inhibition at 5 µM [2] was 3.89% and the inhibition at 5 µM [3] was 5.19%.

With `CCCCC1C(=O)N(c2ccccc2)N(c2ccccc2)C1=O` [Phenylbutazone] the inhibition at 5 µM [1] was 6.15%, the inhibition at 5 µM [2] was 6% and the inhibition at 5 µM [3] was 6.3%.

In the case of `OC(CN1CCN(c2cccc(Cl)c2)CC1)C(c1ccccc1)c1ccccc1` (stereo not drawn) [BRL 15572], the “mean (LOPAC_screen_w_protease)” value [4] was 1.912, the “Replicate_1 (LOPAC_screen_w_protease)” value [5] was 0.6201 and the “Replicate_2 (LOPAC_screen_w_protease)” value [6] was 3.204.

`Cl.NCCNC(=O)c1ncsc1-c1cccc(F)c1` [Ro 41-1049 hydrochloride] gave a mean [7] of -0.1611, a Replicate_1 [8] of 1.896 and a Replicate_2 [9] of -2.218.

Compound `CC(C)(C)NCC(O)c1ccc(O)c(CO)c1` (stereo not drawn) [Salbutamol] has an inhibition at 5 µM (sheet LOPAC_screen_w_protease, LOPAC1280 at 5 µM, mean of two replicates, read-out: mean) of 1.09%, an inhibition at 5 µM (sheet LOPAC_screen_w_protease, LOPAC1280 at 5 µM, replicate 1, read-out: Replicate_1) of 1.09% and an inhibition at 5 µM (sheet LOPAC_screen_w_protease, LOPAC1280 at 5 µM, replicate 2, read-out: Replicate_2) of 1.1%.

In the case of `NCCS(=O)O` [Hypotaurine], the inhibition at 5 µM (LOPAC1280 primary screen with protease, 5 µM compound, replicate 1, read-out: Replicate_1 (LOPAC_screen_w_protease)) was 4.13%, the inhibition at 5 µM (LOPAC1280 primary screen with protease, 5 µM compound, replicate 2, read-out: Replicate_2 (LOPAC_screen_w_protease)) was -0.407% and the “mean (LOPAC_screen_w_protease)” value [4] was 1.861.

`CC1Cc2cc3c(cc2C(c2ccc(N)cc2)=NN1)OCO3.Cl` (stereo not drawn) [GYKI 52895] was tested, and the mean (sheet LOPAC_screen_w_protease, LOPAC1280 primary screen with protease, 5 µM compound, mean of the two replicates) was 5.365, the Replicate_1 (sheet LOPAC_screen_w_protease, LOPAC1280 primary screen with protease, 5 µM compound, replicate 1) was 5.021 and the Replicate_2 (sheet LOPAC_screen_w_protease, LOPAC1280 primary screen with protease, 5 µM compound, replicate 2) was 5.7079.

`Cc1c(C)c2c(c(C)c1O)CCC(C)(CN1CCN(c3cc(N4CCCC4)nc(N4CCCC4)n3)CC1)O2.Cl.Cl` (stereo not drawn) [U-83836 dihydrochloride] was tested, and the mean [7] was 0.07046, the Replicate_1 [8] was -0.1864 and the Replicate_2 [9] was 0.3273.

With `CC[N+](CC)(CC)CC` [Tetraethylammonium chloride] the inhibition at 5 µM (read-out: Replicate_1) was 2.25%, the inhibition at 5 µM (read-out: Replicate_2) was -1.51% and the inhibition at 5 µM (read-out: mean) was 0.374%.

`C=CCN1CC[C@]23c4c5ccc(O)c4O[C@H]2C(=O)CC[C@@]3(O)[C@H]1C5` [Naloxone hydrochloride] was tested, and the inhibition at 5 µM [10] was 4%, the inhibition at 5 µM [11] was 3.91% and the inhibition at 5 µM [12] was 4.09%.

With `CC(=O)OCC1=C(C(=O)O)N2C(=O)[C@@H](NC(=O)Cc3cccs3)[C@H]2SC1` [Cephalothin sodium] the inhibition at 5 µM [1] was 5.22%, the inhibition at 5 µM [2] was 4.83% and the inhibition at 5 µM [3] was 5.61%.

For `CC(C)Oc1cccnc1N(C)C1CCN(Cc2ccccc2)CC1.O=C(O)/C=C\C(=O)O` [U-101958 maleate], the mean [7] was 0.02682, the Replicate_1 [8] was 1.919 and the Replicate_2 [9] was -1.865.

`Cl.N[C@@H](CCC(=O)O)C(=O)O` [L-Glutamic acid hydrochloride] was tested, and the “mean (LOPAC_screen_w_protease)” value (LOPAC1280 primary screen with protease, 5 µM compound, mean of two replicates) was 1.56, the “Replicate_1 (LOPAC_screen_w_protease)” value [5] was 1.529 and the “Replicate_2 (LOPAC_screen_w_protease)” value [6] was 1.59.

With `CC(=O)Oc1cc(C(C)C)c(OCCN(C)C)cc1C` [Moxisylyte hydrochloride] the inhibition at 5 µM [10] was 3.55%, the inhibition at 5 µM [11] was 4.09% and the inhibition at 5 µM [12] was 3.01%.

`N[C@@H](Cc1c[nH]c2ccc(O)cc12)C(=O)O` [5-Hydroxy-L-tryptophan] gave an inhibition at 5 µM (sheet LOPAC_screen_w_protease, primary screen at 5 µM, mean of two replicates, read-out: mean (LOPAC screen with protease)) of 14.5%, an inhibition at 5 µM (sheet LOPAC_screen_w_protease, primary screen at 5 µM, replicate 1, read-out: Replicate_1 (LOPAC screen with protease)) of 16.3% and an inhibition at 5 µM (sheet LOPAC_screen_w_protease, primary screen at 5 µM, replicate 2, read-out: Replicate_2 (LOPAC screen with protease)) of 12.8%.

Compound `COC(=O)C1=C(C)NC(C)=C([N+](=O)[O-])C1c1ccccc1C(F)(F)F` (racemic) [(±)-Bay K 8644] has a mean (sheet LOPAC_screen_w_protease, primary screen with protease, compound at 5 µM, mean of two replicates) of 3.088, a Replicate_1 (sheet LOPAC_screen_w_protease, primary screen with protease, compound at 5 µM, replicate 1) of 2.534 and a Replicate_2 (sheet LOPAC_screen_w_protease, primary screen with protease, compound at 5 µM, replicate 2) of 3.642.
